Results: patent US11353448B2, “Methods and compositions for quantifying metabolites and proteins from single cells” (CALIFORNIA INSTITUTE OF TECHNOLOGY, priority 2015, dated 2022)
Entries after “also recorded” stand apart in the source; their conditions may differ. Where two headings read alike, the source gives them in different places.

Legend:
U87/EGFRV3 cells = assay: Glutamine analog uptake (Cyclodextrin-Cy3 / Adamantane-BHQ2 FRET readout); type: cell-based, human; settings: 1 mM analog, 20 min; with glutamine at 4° C. and 37° C., without glutamine at 37° C.
Method: FIG. 5B is a graph of cell uptake experiments using the immunofluorescence assay depicted in FIG. 2C to assay Compounds 1-8 as shown in FIG. 5A in the presence of glutamine at 4° C. (left bars) and 37° C. (middle bars), and in the absence of glutamine at 37° C. (right bars), according to embodiments of the present invention.
U87/EGFRV3 single cells were resuspended in DMEM media or glutamine-free DMEM media (Thermo Fisher Scientific) with 1 mM of glutamine analog and incubated at 37° C. or 4° C. for 20 min. Subsequently, the cells were collected via centrifugation (500 g, 5 min) and washed with cold PBS for three times. Then, the cells were lysed using cell lysis buffer (Cell Signaling, Boston, Mass., U.S.A.). To quantify the analog uptake, the lysate was mixed with an Adamantane-BHQ2 solution (100 nM in water) incubated on the glass slide with surface hybridized Cyclodextrin-Cy3-DNA at room temperature for 1 hr. the glass slide was then washed and spin dried. The fluorescence signal on the glass slide was read out using an Axon GenePix 4400A scanner.

cell growth = assay: Cell toxicity of Compound 3 Ad-Glutamine analog (cell numbers normalized to control); type: cell-based; settings: indicated concentrations, FIG. 5F
Source text: FIG. 5F is a graph showing cell toxicity of the Compound 3-Ad-Glutamine analog at the indicated concentrations with cell numbers normalized to the control sample, according to embodiments of the present invention.

U87 cells = assay: Glutamine kit assay (Abcam, ab83389), cells incubated with Compound 3; type: cell-based, human; settings: U87 cells alone vs incubated with Compound 3
[1] = target: T1, SLC1A5 neutral amino acid transporter (Homo sapiens, UniProt Q15758); assay: Uptake of Compound 3 with the SLC1A5 transporter inhibited (sodium free, siRNA); type: cell-based; settings: U87 cells
T1 construct: Compound 3 was further analyzed for uptake in U87 cells; endogenous in cells; host or cells: U87 (U87/EGFRV3) glioblastoma cells
T1 sequence (Q15758 1-541): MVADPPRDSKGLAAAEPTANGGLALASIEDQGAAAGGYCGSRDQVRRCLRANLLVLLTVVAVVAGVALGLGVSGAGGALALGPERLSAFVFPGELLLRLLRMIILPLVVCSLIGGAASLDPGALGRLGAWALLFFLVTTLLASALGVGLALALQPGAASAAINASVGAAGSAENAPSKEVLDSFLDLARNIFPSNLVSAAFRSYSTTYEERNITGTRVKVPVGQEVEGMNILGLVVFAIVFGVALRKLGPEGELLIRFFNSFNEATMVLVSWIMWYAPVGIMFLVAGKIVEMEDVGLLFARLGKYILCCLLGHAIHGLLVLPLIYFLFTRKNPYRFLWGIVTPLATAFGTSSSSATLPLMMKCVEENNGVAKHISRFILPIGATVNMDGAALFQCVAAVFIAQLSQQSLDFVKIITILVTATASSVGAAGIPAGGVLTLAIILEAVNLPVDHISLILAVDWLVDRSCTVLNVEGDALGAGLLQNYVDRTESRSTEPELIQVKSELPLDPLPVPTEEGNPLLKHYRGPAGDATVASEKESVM
Method: In some embodiments of the present invention, a method for measuring glutamine uptake in a cell includes incubating the cell with a glutamine analog, followed by lysis of the cell, and quantification of the amount of the glutamine analog in the cell. […] These 8 glutamine analogs (adamantane conjugates) were assayed for their ability to substitute for glutamine. […] As such, the Compound 3 Ad-Glutamine analog is a validated substitute for glutamine.

U87EGFRvIII cells [2] = assay: Growth curves under erlotinib; type: cell-based, human; settings: 1 uM erlotinib
Source text: U87/EGFRV3 cells were provided by Prof.

U87EGFRvIII cells [3] = tested on: U87EGFRvIII cells
Method: A multiplex assay incorporating the glutamine uptake assay according to embodiments of the present invention was performed using a SCBC platform in U87 human glioblastoma cells having amplified epidermal growth factor receptor (EGFR) expression.
U87/EGFRV3 cells were provided by Prof. Paul S. Mischel (UCSD, San Diego, U.S.A.) and cultured in Dulbecco's modified eagle media (DMEM, Gibco, ThermoFisher Scientific, Grand Island, N.Y., U.S.A.) supplemented with 10% of fetal bovine serum (Thermo Fisher Scientific) and 100 U/mL of penicillin and streptomycin in a humidified 5% CO2 (v/v) incubator, at 37° C.
In order to better understand the integrated single cell metabolic/proteomic data, a simplified semi-quantitative metabolic model (FIG. 16A) was developed. The focus of this model includes the glycolysis pathway and the TCA cycle, which cover the major contributors of cellular energy generation. Glucose is used by cells for many tasks, but by combining the measurement of glucose uptake with measurements of those enzymes that process glucose for energy production and lactate production, an estimation may be made of the contributions of glucose to glycolysis and to the TCA cycle (FIGS. 16A-16B). It assumed that each glucose molecule consumed yields 8 ATP equivalents through glycolysis, and an additional 22 ATP equivalents through the TCA cycle. The numbers here are not the actual ATP production number, but an energy-currency conversion. The glycolysis part generates 2 ATP and 2 NADH molecules per glucose, and each NADH is ultimately worth 3 ATP, thus making 8 ATP total. […] For glutamine that is taken up by the cell, there are multiple possible outcomes. It can enter the TCA cycle to generate energy, or it can be exported in exchange for other amino acids, or participate in biosynthesis of glutathione and proteins, as examples. On this basis, glutamine may be considered as a special currency, which can either be used directly by the cell to produce energy, or in exchange of other necessary nutrients or to perform some crucial metabolic function. From a global point of view, the active uptake of glutamine reflects a metabolic demand from the cell, regardless how it is used. In order to have an integrated picture of the potential energy production from glutamine and glucose, we simply assume that all glutamine participates in the TCA cycle, so that each glutamine molecule affords 8.5 ATP equivalents. To calculate the energy production for each pathway, glucose and glutamine uptake levels as well as related metabolic enzyme levels are normalized into the range between 0 and 1 across all samples. Subsequently, the normalized analyte levels (a) were used and a steady-state approximation (FIG. 16E) to calculate the energy production rate for each step (FIG. 16B). Several energy indices were defined based on the model. The energy production index (EPI) assesses the total energy production rate through glucose and glutamine metabolism, while the energy source index (ESI) measures the energy contribution ratio between glucose and glutamine. The glycolysis index (GI) weighs the contribution of glycolysis in total glucose-based energy production, and depends upon glucose uptake, as well as the levels of phosphofructokinase (PFK) and pyruvate kinase isozyme M2 (PKM2). In addition to the energy indices, we use the cAMP and cGMP levels to define an energy frustration index (EFI), and use the GSH level to define a redox frustration index (RFI).

GBM39 cells = assay: SCBC multiplex metabolite/protein assay before and after erlotinib; type: cell-based, human; settings: 24 h erlotinib treatment (1 μM)
Method: Using a SCBC as shown in FIGS. 1A and 1B and further disclosed herein, simultaneous quantification of a panel of metabolites and proteins, including cAMP, cGMP, glucose uptake, glutathione along with phosphofructokinase (PFK), phospho-acetyl-CoA Caraboxylase (pACAC), phospho-liver kinase B1 (pLKB1), phosphoinositide-dependent kinase 1 (PDK), hexokinase 2 (HK2), pyruvate kinase M2 (PKM2), and phospho-carbohydrate kinase family protein (pPFKB2) was performed in single cells separated from the GBM39 neurosphere tumor model. […] For the drug treatment, 1 million cells were suspended in 10 mL of media and were cultured for several days to form neurospheres. […] The cells were then treated for designated periods of time and processed for tests. Cell loading. The upper channels were briefly rinsed with cell culture medium to minimize perturbation to the cells. […] The suspension was loaded into the SCBC device and compartmentalized into 310 isolated microchambers with single cell or defined number of cells in each chamber. The cell loading step results in a random distribution of different numbers of cells in different chambers, the statistical distribution can be adjusted by varying the loading concentration and the flow speed. […] The extra cells were washed away by 1×PBST. The images of each chamber were recorded using a microscope-CCD camera and used for subsequent cell counting.

GBM39 single cells = assay: Validation of the Gluc-Bio uptake; type: cell-based, human; settings: 20 ug/mL Gluc-Bio, 20 min; 17.5 mM vs 25 mM glucose; 37° C. vs 4° C.
Method: FIG. 4C is a graph of cell uptake experiments using the immunofluorescence assay depicted in FIG. 2B to assay Gluc-Bio uptake in GBM39 primary neurosphere cells at 37° C. in the presence of […] glucose and 25 mM glucose, and at 4° C. at 17.5 mM glucose as indicated, showing that Gluc-Bio competes with glucose, according to embodiments of the present invention.
GBM39 single cells were suspended in normal media (17.5 mM glucose) or high glucose media (25 mM glucose) at a concentration of 0.5 M cells/mL. These cells were incubated with 20 ug/mL of Gluc-Bio at 37° C. or 4° C. for 20 min. After incubation, cells were washed with cold PBS for three times and then lysed for quantifying the Gluc-Bio.

hexokinase = assay: Coupled enzyme kinetics measurement (hexokinase/G6PDH, NADH absorption at 340 nm); type: biochemical
Source text: Enzymes and substrate solutions from a glucose assay kit (Sigma-Aldrich) were used without purification. […] First, hexokinase converts glucose into glucose-6-phosphate, which consumes one equivalent of ATP. Then, the glucose-6-phosphate is converted to gluconate-6-phosphate by glucose-6-phosphate dehydrogenase (G6PDH). At the same time, this process converts NAD to NADH, which has a distinct absorption band at 340 nm. By continuously measuring the solution absorption, the kinetics of the first reaction can be indirectly monitored. […] This will result in a much slower generation of NADH. […] This proves that Gluc-Bio can bind to hexokinase and could be a substrate. […] In this experiment, the amount of ATP was controlled to be much less than that of glucose. If Gluc-Bio is simply an inhibitor and cannot be converted by hexokinase, it will not consume the ATP pool in the solution, and the final amount of NADH will be the same as that of glucose alone.

In the case of `N[C@@H](CC(=O)NC12CC3CC(CC(C3)C1)C2)C(=O)O` [Compound 8, N4-(adamantan-1-yl)asparagine], the “cell uptake of glutamine analog: dependence on temperature and on glutamine” value (U87/EGFRV3 cells) was “temperature-dependency and glutamine-dependency”.

In the case of `NC(CCCNC(=O)C12CC3CC(CC(C3)C1)C2)C(=O)O` (stereo not drawn) [Compound 3, 5-(adamantane-1-carboxamido)-2-aminopentanoic acid], the “cell growth / cell toxicity” value (cell growth) was “does not inhibit cell growth”, the “competition with cellular glutamine (absorbance)” value (U87 cells) was “competes with the cellular glutamine” and the “cell uptake of glutamine analog: dependence on temperature and on glutamine” value (U87/EGFRV3 cells) was “temperature-dependency and glutamine-dependency”. For the same compound, the “cell uptake of Compound 3” value ([1]; siRNA knock-down of SLC1A5) was “inhibition of cell uptake” and the “Compound 3 fluorescence (uptake)” value ([1]; sodium free conditions) was “inhibition of Compound 3 fluorescence (uptake)”.

`C#Cc1cccc(Nc2ncnc3cc(OCCOC)c(OCCOC)cc23)c1` [erlotinib] was tested, and the “cell growth (number of cells as a function of days)” value (U87EGFRvIII cells [2]) was “not inhibited; also recorded: does not inhibit”, the glutamine uptake (U87EGFRvIII cells [3]; 1 uM erlotinib) was “increased” and the glucose uptake (U87EGFRvIII cells [3]; 1 μM erlotinib) was “repressed”. The “levels of PFK and PKM2” value (U87EGFRvIII cells [3]; 1 μM erlotinib) was “increased”, the glucose uptake (U87EGFRvIII cells [3]; higher dose erlotinib (10 μM)) was “decreased” and the glutamine uptake (U87EGFRvIII cells [3]; higher dose erlotinib (10 μM)) was “decreased”. The metabolic enzymes (U87EGFRvIII cells [3]; higher dose erlotinib (10 μM)) was “repressed”, the “cellular energy production (EPI)” value (U87EGFRvIII cells [3]; higher drug concentration (10 μM)) was “inhibits cellular energy production” and the “activities of HK2” value (GBM39 cells) was “sharply reduced”. The “level of GSH” value (GBM39 cells) was “sharply reduced” and the “level of glucose uptake” value (GBM39 cells) was “sharply reduced”.

In the case of `O=C(CCCC[C@@H]1SC[C@@H]2NC(=O)N[C@@H]21)N[C@H]1C(O)O[C@H](CO)[C@@H](O)[C@@H]1O` (stereo partly drawn) [Gluc-Bio], the “uptake of Gluc-Bio” value (GBM39 single cells) was “inhibited by increasing the extracellular glucose concentration and by decreasing the temperature”, the “generation of NADH in the presence of Gluc-Bio” value (hexokinase; 0.5 mM glucose and 0.5 mM Gluc-Bio vs 0.5 mM glucose alone) was “much slower than that of glucose alone” and the “final amount of NADH generated” value (hexokinase; ATP much less than glucose, addition of Gluc-Bio) was “less NADH was generated”. For the same compound, the substrate for hexokinase (hexokinase; conclusion from both experiments) was “is a substrate for hexokinase”.
